Results published in patent publication US5686486A, “4-hydroxy-benzopyran-2-ones and 4-hydroxy-cycloalkyl[b]pyran-2-ones useful to treat retroviral infections” (priority 1995, dated 1997).
Counter-ions that a name gives are not always drawn.

Target: HIV-1 protease (Human immunodeficiency virus type 1 group M subtype B, UniProt P04585)
Assay: biochemical
Conditions: for inhibition at 1 µM: read-out: HIV-1 Protease % Inhib, dose 1.000 uM; for inhibition at 10 µM: read-out: HIV-1 Protease % Inhib, dose 10.000 uM; for inhibition at 100 µM: read-out: HIV-1 Protease % Inhib, dose 100.000 uM; for IC50: HIV-1 Protease IC50
Description: The HIV protease screening assay is based on fluorescently labeled substrate which can be resolved from nonlabeled cleavage product using special beads coated with streptavidin. The substrate is biotinylated at the amino terminal arginine and fluorescently labeled with fluorescein isothiocynate (FITC) at the carboxyl terminal lysine. This assay has been employed to detect novel, nonpeptidic inhibitors of HIV-1 protease. Substrate (20 μl of 0.2 μM), sample (10 μl of desired concentration), and enzyme (10 μl of 0.1 μM) are added to a 96 well pandex plate. The assay is run in 0.1M sodium acetate buffer at pH 5.5 in the presence of 1.0M sodium chloride and 0.05% NP-40 with incubated in the dark for one hour at room temperature. Strepavidin coated polystyrene beads {40 μl of 0.1% (w/v)} are added and the plate is incubated in the dark for an additional half hour. The labeled cleavage product is separated from the unreacted substrate via filtration and is read on the Idexx screen machine. The data are analyzed by appropriate computer algorithms to ascertain percent inhibition values.

Compound | inhibition at 1 µM | inhibition at 10 µM | inhibition at 100 µM | IC50
CCC(c1cccc(NC(=O)CCC2CCCCC2)c1)c1c(O)c2ccccc2oc1=O (stereo not drawn) [Example 56, Coumarin, 3-[1-[3-[(3-cyclohexyl-1-oxopropyl)amino]phenyl]propyl]-4-hydroxy-] | < 10% | < 10% | 49.5% | –
CCC(c1cccc(NC(=O)CCc2ccccc2)c1)c1c(O)c2ccc(OC)cc2oc1=O (stereo not drawn) [Example 57, Coumarin, 4-hydroxy-7-methoxy-3-[1-[3-[(1-oxo-3-phenylpropyl)amino]phenyl]propyl]-] | 17.6% | 94.4% | 99.3% | 2800 nM
CCC(c1cccc(NC(=O)CCNC(=O)OC(C)(C)C)c1)c1c(O)c2ccc(OC)cc2oc1=O (stereo not drawn) [Example 58, Coumarin, 4-hydroxy-3-[1-[3-[[3-[(1,1-dimethylethoxycarbonyl)amino]-1-oxopropyl]amino]phenyl]propyl]-7-methoxy-] | 36.3% | 90.2% | 108% | 1200 nM
CCC(c1cccc(NC(=O)C2CCCN2C(=O)OC(C)(C)C)c1)c1c(O)c2ccccc2oc1=O (stereo not drawn) [Example 59, 1-Pyrrolidinecarboxylic acid, 2-[[[3-[1-(4-hydroxy-2-oxo-2H-1-benzopyran-3-yl)propyl]phenyl]amino]carbonyl]-, 1,1-dimethylethyl ester] | < 10% | 21.5% | 82.8% | –
CCC(c1cccc(NC(=O)C(C)NC(=O)OC(C)(C)C)c1)c1c(O)c2ccccc2oc1=O (stereo not drawn) [Example 60, Carbamic acid, [2-[[3-[1-(4-hydroxy-2-oxo-2H-1-benzopyran-3-yl)propyl]phenyl]amino]-1-methyl-2-oxoethyl]-, 1,1-dimethylethyl ester] | 31.5% | 90.8% | 117% | 1100 nM
CCC(c1cccc(NC(=O)C(C)N)c1)c1c(O)c2ccccc2oc1=O (stereo not drawn) [Example 61, Propanamide, 2-amino-N-[3-[1-(4-hydroxy-2-oxo-2H-1-benzopyran-3-yl)propyl]phenyl]-, mono(trifluoroacetate) (salt)] | 77.8% | 115% | 119% | 1000 nM
CCC(c1cccc(NC(=O)CCc2ccc(O)cc2)c1)c1c(O)c2ccccc2oc1=O (stereo not drawn) [Example 62, Coumarin, 4-hydroxy-3-[1-[3-[[3-(4-hydroxyphenyl)-1-oxopropyl]amino]phenyl]propyl]-] | < 10% | 10.6% | 78.3% | –
CCC(c1cccc(NC(=O)CCn2ccc3ccccc32)c1)c1c(O)c2ccccc2oc1=O (stereo not drawn) [Example 63, Coumarin, 4-hydroxy-3-[1-[3-[[3-(^1 H-indol-1-yl)-1-oxopropyl]amino]phenyl]propyl]-] | 77.6% | 90.3% | 111% | 2000 nM
CCC(c1cccc(NC(=O)CCc2cccc3ccccc23)c1)c1c(O)c2ccccc2oc1=O (stereo not drawn) [Example 64, Coumarin, 4-hydroxy-3-[1-[3-[[3-(1-naphthyl)-1-oxopropyl]amino]phenyl]propyl]-] | 29.1% | 78.1% | 104% | 5800 nM
CCC(c1cccc(NC(=O)CCSc2nc3ccccc3s2)c1)c1c(O)c2ccccc2oc1=O (stereo not drawn) [Example 65, Coumarin, 3-[1-[3-[[3-[(2-benzothiazolyl)thio]-1-oxopropyl]amino]phenyl]propyl]4-hydroxy-] | < 10% | 48.4% | 86.1% | –
CC(C)(C)OC(=O)CC(c1ccccc1)c1c(O)c2ccccc2oc1=O (stereo not drawn) [Example 66, 4-hydroxy-3-[α-tert-butyloxycarbonylmethyl]benzylcoumarin] | < 10% | < 10% | 52.6% | –
C=CCOc1cccc(C(CC)c2c(O)c3ccccc3oc2=O)c1 (stereo not drawn) [Example 67, 3-(1'-(3-Allyloxyphenyl)propyl)-4-hydroxycoumarin] | < 10% | 11.7% | 60.9% | –
